Source: patent US9925193B2, “Thioether derivatives as protein kinase inhibitors” (KTB TUMORFORSCHUNGSGESELLSCHAFT MBH, priority 2012, dated 2018)

Experiments:
AXL = biological target: T1, AXL (Homo sapiens, UniProt P30530); assay: 33PanQinase Activity Assay, AXL; type: biochemical; settings: recombinant human protein kinase, 1 μM [γ-33P]-ATP, 30° C. 80 minutes
T1 construct: made in house; host or cells: Sf9 insect cells (baculovirus)
T1 sequence (P30530 26-894): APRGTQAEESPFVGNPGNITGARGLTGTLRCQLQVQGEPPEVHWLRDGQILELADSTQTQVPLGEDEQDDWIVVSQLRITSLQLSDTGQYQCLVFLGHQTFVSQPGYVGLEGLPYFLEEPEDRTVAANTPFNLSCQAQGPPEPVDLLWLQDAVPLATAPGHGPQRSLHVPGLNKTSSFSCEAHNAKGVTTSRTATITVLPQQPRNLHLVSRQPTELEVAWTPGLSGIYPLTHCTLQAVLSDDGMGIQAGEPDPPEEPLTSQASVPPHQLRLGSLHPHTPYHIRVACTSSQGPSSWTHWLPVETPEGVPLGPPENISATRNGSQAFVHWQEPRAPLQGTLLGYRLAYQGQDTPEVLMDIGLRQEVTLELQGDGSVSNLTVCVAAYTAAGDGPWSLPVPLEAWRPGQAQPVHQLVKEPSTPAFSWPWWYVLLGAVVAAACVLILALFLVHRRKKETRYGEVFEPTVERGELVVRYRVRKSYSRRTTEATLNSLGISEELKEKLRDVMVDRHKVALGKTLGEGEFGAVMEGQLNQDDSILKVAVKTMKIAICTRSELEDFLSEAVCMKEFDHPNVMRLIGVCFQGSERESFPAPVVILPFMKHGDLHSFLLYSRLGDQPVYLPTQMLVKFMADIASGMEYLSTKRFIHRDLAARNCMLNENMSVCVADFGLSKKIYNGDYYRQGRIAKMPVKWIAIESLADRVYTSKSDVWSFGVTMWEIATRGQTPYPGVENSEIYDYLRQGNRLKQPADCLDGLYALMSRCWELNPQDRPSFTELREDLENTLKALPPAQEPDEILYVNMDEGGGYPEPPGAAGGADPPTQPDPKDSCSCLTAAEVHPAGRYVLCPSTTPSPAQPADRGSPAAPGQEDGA
Description: (§1) The effect of the thioether derivatives 8a-v and 9a-i was tested on recombinant, human protein kinases. All protein kinases were expressed in Sf9 insect cells as human recombinant GST-fusion proteins or as His-tagged proteins by means of the baculovirus expression system. Protein kinases were purified by affinity chromatography using either GSH-agarose or Ni-NTH-agarose. The purity and identity of each was checked by SDS-PAGE/silver staining and by western blot analysis with specific antibodies.
(§2) A proprietary protein kinase assay (^33PanQinase® Activity Assay) was used for measuring the kinase activity. All kinase assays were performed in 96-well FlashPlates™ in a 50 μl reaction volume. The assay for all enzymes contained 60 mM HEPES-NaOH, pH 7.5, 3 mM MgCl2, 3 mM MnCl2, 3 μM Na-orthovanadate, 1.2 mM DTT, 50 μg/ml PEG20000 and 1 μM [γ-^33P]-ATP (approx. 5×10^5 cpm per well).
(§3) The reaction cocktails were incubated at 30° C. for 80 minutes. The reaction was stopped with 50 μl of 2% (v/v) H3PO4, plates were aspirated and washed two times with 200 μl of 0.9% (w/v) NaCl. Incorporation of ^33Pi was determined with a microplate scintillation counter. All assays were performed with a BeckmanCoulter/Sagian robotic system.

FAK = biological target: T2, FAK (Homo sapiens, UniProt Q05397); assay: 33PanQinase Activity Assay, FAK; type: biochemical; settings: recombinant human protein kinase, 1 μM [γ-33P]-ATP, 30° C. 80 minutes
T2 construct: made in house; host or cells: Sf9 insect cells (baculovirus)
T2 sequence (Q05397 whole entry): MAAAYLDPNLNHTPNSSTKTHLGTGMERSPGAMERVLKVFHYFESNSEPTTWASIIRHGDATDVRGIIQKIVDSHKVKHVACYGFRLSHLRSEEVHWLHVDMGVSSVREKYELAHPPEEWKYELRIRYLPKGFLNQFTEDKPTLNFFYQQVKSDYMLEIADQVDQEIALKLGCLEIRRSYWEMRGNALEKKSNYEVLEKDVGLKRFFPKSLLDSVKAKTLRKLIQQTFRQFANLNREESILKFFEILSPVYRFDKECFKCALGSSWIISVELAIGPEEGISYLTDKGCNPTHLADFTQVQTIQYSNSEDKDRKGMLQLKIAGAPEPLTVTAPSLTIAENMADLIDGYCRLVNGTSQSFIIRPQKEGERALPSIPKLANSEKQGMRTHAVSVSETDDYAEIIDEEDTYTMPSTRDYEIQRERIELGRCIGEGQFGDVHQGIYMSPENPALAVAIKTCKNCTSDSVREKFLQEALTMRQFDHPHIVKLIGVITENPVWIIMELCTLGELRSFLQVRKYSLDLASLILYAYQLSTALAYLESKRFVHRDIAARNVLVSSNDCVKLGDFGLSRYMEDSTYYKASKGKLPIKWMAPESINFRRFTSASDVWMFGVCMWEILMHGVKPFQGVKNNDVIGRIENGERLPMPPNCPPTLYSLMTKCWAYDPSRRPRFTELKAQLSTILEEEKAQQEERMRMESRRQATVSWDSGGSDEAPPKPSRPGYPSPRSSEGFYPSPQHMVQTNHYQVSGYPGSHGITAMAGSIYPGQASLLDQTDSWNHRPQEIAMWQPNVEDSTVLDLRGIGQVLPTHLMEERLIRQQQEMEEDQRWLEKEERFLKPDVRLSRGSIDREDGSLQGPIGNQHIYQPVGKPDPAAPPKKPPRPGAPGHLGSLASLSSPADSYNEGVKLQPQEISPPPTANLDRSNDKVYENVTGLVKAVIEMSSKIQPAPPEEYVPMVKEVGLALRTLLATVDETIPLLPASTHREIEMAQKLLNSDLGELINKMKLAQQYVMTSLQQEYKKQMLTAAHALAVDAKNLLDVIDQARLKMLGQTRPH
Description: as §1, §2, §3

KIT wt = biological target: T3, KIT wt (Homo sapiens, UniProt P10721); assay: 33PanQinase Activity Assay, KIT wt; type: biochemical; settings: recombinant human protein kinase, 1 μM [γ-33P]-ATP, 30° C. 80 minutes
T3 construct: made in house; host or cells: Sf9 insect cells (baculovirus)
T3 sequence (P10721 26-976): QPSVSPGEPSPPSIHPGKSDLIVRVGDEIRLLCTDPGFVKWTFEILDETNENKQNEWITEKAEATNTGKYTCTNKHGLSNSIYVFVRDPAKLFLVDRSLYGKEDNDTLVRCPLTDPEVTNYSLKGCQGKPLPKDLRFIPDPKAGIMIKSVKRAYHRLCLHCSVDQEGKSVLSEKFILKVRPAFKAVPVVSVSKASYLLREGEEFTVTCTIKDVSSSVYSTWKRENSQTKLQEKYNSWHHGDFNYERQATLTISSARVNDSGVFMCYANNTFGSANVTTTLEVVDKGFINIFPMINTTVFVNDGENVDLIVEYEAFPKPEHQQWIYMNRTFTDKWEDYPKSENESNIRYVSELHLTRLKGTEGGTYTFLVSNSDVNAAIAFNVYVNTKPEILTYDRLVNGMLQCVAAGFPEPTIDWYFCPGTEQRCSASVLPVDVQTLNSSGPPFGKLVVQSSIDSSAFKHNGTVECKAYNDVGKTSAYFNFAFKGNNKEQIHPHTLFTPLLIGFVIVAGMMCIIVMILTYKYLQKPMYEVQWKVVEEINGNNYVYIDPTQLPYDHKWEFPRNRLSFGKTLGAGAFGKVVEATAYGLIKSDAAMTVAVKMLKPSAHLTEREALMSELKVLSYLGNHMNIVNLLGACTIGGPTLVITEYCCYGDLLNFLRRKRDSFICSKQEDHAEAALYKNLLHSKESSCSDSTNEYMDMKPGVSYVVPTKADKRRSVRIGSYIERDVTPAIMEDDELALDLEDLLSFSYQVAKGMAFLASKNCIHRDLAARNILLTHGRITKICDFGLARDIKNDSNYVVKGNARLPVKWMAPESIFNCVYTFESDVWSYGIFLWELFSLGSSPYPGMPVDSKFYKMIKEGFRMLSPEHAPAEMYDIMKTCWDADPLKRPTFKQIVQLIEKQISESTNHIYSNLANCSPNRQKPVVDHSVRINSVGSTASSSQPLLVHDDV
Description: as §1, §2, §3

ALK = biological target: T4, ALK (Homo sapiens, UniProt Q9UM73); assay: 33PanQinase Activity Assay, ALK; type: biochemical; settings: recombinant human protein kinase, 1 μM [γ-33P]-ATP, 30° C. 80 minutes
T4 construct: made in house; host or cells: Sf9 insect cells (baculovirus)
T4 sequence (Q9UM73 19-1620): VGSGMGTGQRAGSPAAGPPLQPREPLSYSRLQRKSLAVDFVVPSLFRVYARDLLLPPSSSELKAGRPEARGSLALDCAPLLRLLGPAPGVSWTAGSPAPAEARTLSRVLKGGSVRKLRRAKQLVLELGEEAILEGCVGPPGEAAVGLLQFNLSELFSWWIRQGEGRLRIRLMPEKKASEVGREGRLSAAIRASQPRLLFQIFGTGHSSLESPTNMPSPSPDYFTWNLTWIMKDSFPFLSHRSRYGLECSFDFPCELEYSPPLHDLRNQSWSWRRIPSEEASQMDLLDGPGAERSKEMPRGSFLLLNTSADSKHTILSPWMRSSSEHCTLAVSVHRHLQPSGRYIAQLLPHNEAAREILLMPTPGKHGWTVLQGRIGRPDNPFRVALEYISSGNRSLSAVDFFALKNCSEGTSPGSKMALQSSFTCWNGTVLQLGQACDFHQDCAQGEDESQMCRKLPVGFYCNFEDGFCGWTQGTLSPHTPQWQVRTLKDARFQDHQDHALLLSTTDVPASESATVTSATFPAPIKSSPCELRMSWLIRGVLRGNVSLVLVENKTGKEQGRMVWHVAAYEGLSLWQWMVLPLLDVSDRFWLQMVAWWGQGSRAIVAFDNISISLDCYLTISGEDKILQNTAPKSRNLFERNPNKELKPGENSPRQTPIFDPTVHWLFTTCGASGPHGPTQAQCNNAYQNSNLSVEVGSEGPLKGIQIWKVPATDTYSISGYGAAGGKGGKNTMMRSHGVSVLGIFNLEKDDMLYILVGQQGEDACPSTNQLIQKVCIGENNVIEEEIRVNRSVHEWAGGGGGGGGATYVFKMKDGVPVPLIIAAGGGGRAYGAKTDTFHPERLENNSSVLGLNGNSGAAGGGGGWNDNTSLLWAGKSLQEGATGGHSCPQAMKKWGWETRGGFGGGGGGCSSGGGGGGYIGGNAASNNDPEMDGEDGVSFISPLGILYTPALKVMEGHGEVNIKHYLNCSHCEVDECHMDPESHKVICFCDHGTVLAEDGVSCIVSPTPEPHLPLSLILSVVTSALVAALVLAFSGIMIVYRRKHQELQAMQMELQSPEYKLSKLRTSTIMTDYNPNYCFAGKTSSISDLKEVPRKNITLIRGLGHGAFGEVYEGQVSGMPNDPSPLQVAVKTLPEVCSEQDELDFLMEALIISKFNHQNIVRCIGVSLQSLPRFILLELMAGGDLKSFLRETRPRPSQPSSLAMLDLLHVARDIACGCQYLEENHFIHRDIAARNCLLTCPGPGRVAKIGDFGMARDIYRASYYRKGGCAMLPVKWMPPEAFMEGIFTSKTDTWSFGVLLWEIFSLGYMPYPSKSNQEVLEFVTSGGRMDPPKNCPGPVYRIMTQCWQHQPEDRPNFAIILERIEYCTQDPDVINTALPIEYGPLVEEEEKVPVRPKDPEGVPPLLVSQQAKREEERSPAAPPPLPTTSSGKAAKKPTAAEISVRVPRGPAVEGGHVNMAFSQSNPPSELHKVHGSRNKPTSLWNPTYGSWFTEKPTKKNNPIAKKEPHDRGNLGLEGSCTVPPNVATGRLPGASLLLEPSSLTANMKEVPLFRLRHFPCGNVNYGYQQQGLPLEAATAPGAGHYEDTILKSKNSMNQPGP
Description: as §1, §2, §3

VEGF-R2 = biological target: T5, VEGF-R2 (Homo sapiens, UniProt P35968); assay: 33PanQinase Activity Assay, VEGF-R2; type: biochemical; settings: recombinant human protein kinase, 1 μM [γ-33P]-ATP, 30° C. 80 minutes
T5 construct: made in house; host or cells: Sf9 insect cells (baculovirus)
Description: as §1, §2, §3

IGF1-R = biological target: T6, IGF1-R (Homo sapiens, UniProt P08069); assay: 33PanQinase Activity Assay, IGF1-R; type: biochemical; settings: recombinant human protein kinase, 1 μM [γ-33P]-ATP, 30° C. 80 minutes
T6 construct: made in house; host or cells: Sf9 insect cells (baculovirus)
Description: as §1, §2, §3

PIM1 = biological target: T7, PIM1 (Homo sapiens, UniProt P11309); assay: 33PanQinase Activity Assay, PIM1; type: biochemical; settings: recombinant human protein kinase, 1 μM [γ-33P]-ATP, 30° C. 80 minutes
T7 construct: made in house; host or cells: Sf9 insect cells (baculovirus)
T7 sequence (P11309 whole entry): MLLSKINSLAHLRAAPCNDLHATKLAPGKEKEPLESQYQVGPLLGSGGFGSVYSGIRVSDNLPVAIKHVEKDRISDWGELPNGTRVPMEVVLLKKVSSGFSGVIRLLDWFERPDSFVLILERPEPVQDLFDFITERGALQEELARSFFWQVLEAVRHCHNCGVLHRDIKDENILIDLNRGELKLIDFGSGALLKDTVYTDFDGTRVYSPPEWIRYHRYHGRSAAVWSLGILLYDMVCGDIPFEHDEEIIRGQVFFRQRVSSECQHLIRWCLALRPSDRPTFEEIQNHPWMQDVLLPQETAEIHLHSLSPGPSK
Description: as §1, §2, §3

SRC = biological target: T8, SRC (Homo sapiens, UniProt P12931); assay: 33PanQinase Activity Assay, SRC; type: biochemical; settings: recombinant human protein kinase, 1 μM [γ-33P]-ATP, 30° C. 80 minutes
T8 construct: made in house; host or cells: Sf9 insect cells (baculovirus)
T8 sequence (P12931 whole entry): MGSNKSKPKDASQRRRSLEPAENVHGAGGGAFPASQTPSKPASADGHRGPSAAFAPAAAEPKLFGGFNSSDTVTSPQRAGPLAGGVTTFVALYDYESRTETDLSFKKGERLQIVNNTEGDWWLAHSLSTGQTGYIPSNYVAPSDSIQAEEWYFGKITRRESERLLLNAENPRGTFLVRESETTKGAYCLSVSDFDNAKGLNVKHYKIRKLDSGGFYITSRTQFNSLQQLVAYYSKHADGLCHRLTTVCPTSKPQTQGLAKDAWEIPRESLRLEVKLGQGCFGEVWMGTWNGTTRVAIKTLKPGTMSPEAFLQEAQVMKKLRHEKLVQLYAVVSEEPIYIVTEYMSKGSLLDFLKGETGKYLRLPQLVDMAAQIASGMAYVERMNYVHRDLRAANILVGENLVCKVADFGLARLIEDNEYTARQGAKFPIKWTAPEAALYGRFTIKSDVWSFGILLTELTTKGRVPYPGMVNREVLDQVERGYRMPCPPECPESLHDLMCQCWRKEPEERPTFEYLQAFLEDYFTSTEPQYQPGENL
Description: as §1, §2, §3

Row | IC50 (AXL) | IC50 (FAK) | IC50 (KIT wt) | IC50 (ALK) | IC50 (VEGF-R2) | melting point | IC50 (IGF1-R) | IC50 (PIM1) | IC50 (SRC) | SMILES
1 | 10.1 µM | 10.5 µM | 0.873 µM | 2.72 µM | – | – | – | – | – | COc1ccc(-c2cc3ncnc(Sc4n[nH]/c(=N\C5CC5)s4)c3s2)cc1 [Compound 9h]
2 | 6.19 µM | 4.82 µM | – | 2.37 µM | 4.07 µM | 197 to 199 °C | 3.28 µM | 22.9 µM | 2.51 µM | CC(C)(C)c1nnc(Sc2ncnc3cc(-c4ccc(F)cc4)sc23)o1 [Compound 8g, 2-(tert-Butyl)-5-{[6-(4-fluorophenyl)thieno[3,2-d]pyrimidin-4-yl]thio}-1,3,4-oxadiazole]
3 | 2.2 µM | 1.5 µM | – | 1.3 µM | – | 213 to 215 °C | – | – | 0.8 µM | COc1ccc(-c2cc3ncnc(Sc4nnc(-c5ccc(Cl)cc5Cl)o4)c3s2)cc1 [Compound 8q, 2-(2,4-Dichlorophenyl)-5-{[6-(4-methoxyphenyl)thieno[3,2-d]pyrimidin-4-yl]thio}-1,3,4-oxadiazole]
4 | 9.76 µM | 7.89 µM | 1.3 µM | 2.76 µM | – | – | – | – | – | COc1ccc(-c2cc3ncnc(Sc4nnnn4C4CC4)c3s2)cc1 [Compound 9e]
5 | 24 µM | 26 µM | – | 27 µM | – | 250 to 251 °C | – | – | 19 µM | c1ccc(-c2nc3c(Sc4nnc(-c5ccncc5)o4)ncnc3[nH]2)cc1 [Compound 8s, 2-[(8-Phenyl-9H-purin-6-yl)thio]-5-(pyridin-4-yl)-1,3,4-oxadiazole]
6 | 0.94 µM | 0.83 µM | – | 0.97 µM | – | 213 to 215 °C | – | – | 0.032 µM | COc1ccc(-c2cc3ncnc(Sc4nnc(-c5ccccc5)o4)c3s2)cc1 [Compound 8m, 2-{[6-(4-Methoxyphenyl)thieno[3,2-d]pyrimidin-4-yl]thio}-5-phenyl-1,3,4-oxadiazole]
7 | 40 µM | 23 µM | – | 22 µM | – | 224 to 225 °C | – | – | 11 µM | c1ccc(-c2nc3c(Sc4nnc(-c5ccco5)o4)ncnc3[nH]2)cc1 [Compound 8u, 2-(Furan-2-yl)-5-[(8-phenyl-9H-purin-6-yl)thio]-1,3,4-oxadiazole]
8 | 1.9 µM | 1.3 µM | – | 0.92 µM | – | 184 to 186 °C | – | – | 0.68 µM | COc1ccc(-c2cc3ncnc(Sc4nnc(-c5ccccc5C)o4)c3s2)cc1 [Compound 8p, 2-{[6-(4-methoxyphenyl)thieno[3,2-d]pyrimidin-4-yl]thio}-5-(o-tolyl)-1,3,4-oxadiazole]
9 | 2.4 µM | 1.7 µM | – | 0.88 µM | – | 227 to 228 °C | – | – | 0.84 µM | COc1ccc(-c2cc3ncnc(Sc4nnc(-c5ccc(C(F)(F)F)cc5)o4)c3s2)cc1 [Compound 8o, 2-{[6-(4-Methoxyphenyl)thieno[3,2-d]pyrimidin-4-yl]thio}-5-[4-(trifluoro-methyl)phenyl]-1,3,4-oxadiazole]
10 | 12.3 µM | – | 2.76 µM | 6.54 µM | – | 170 to 172 °C | – | – | – | CN(C)Cc1nnc(Sc2ncnc3cc(-c4ccc(F)cc4)sc23)o1 [Compound 8c, 1-{5-[(6-{4-Fluorophenyl}thieno[3,2-d]pyrimidin-4-yl)thio]-1,3,4-oxadiazol-2-yl}-N,N-dimethylmethanamine]
11 | 4.58 µM | 5.76 µM | – | 2.95 µM | 2.05 µM | 180 to 182 °C | 7.65 µM | 26.3 µM | 2.62 µM | O=S1(=O)CCC(Cc2nnc(Sc3ncnc4cc(-c5ccc(F)cc5)sc34)o2)C1 (stereo not shown) [Compound 8k, 3-{[5-({6-[4-Fluorophenyl]thieno[3,2-d]pyrimidin-4-yl}thio)-1,3,4-oxadiazol-2-yl]methyl}-tetrahydrothiophene-1,1-dioxide]
12 | 2.7 µM | 1.4 µM | – | 1 µM | – | 221 to 223 °C | – | – | 0.55 µM | COc1ccc(-c2cc3ncnc(Sc4nnc(-c5ccc(Cl)cc5)o4)c3s2)cc1 [Compound 8n, 2-(4-Chlorophenyl)-5-{[6-(4-methoxyphenyl)thieno[3,2-d]pyrimidin-4-yl]thio}-1,3,4-oxadiazole]
13 | 41.7 µM | > 100 µM | 1.25 µM | 15 µM | – | – | – | – | – | Cc1nnc(Sc2ncnc3cc(-c4ccc(Cl)cc4)sc23)s1 [Compound 9i]
14 | 1.63 µM | 8.93 µM | 0.608 µM | 2.16 µM | – | – | – | – | – | O=C1CCCCCN1Cc1nnc(Sc2ncnc3cc(-c4ccc(Cl)cc4)sc23)o1 [Compound 9a]
15 | 2.64 µM | – | 1.74 µM | 2.94 µM | – | 232 °C | – | – | – | Fc1ccc(-c2cc3ncnc(Sc4nnc(-c5ccncc5)o4)c3s2)cc1 [Compound 8b, 2-{[6-(4-Fluorophenyl)thieno[3,2-d]pyrimidin-4-yl]thio}-5-(pyridin-4-yl)-1,3,4-oxadiazole]
16 | > 100 µM | 43 µM | – | 76 µM | – | 198 to 199 °C | – | – | 32 µM | c1ccc(Cc2nnc(Sc3ncnc4[nH]c(-c5ccccc5)nc34)o2)cc1 [Compound 8t, 2-Benzyl-5-[(8-phenyl-9H-purin-6-yl)thio]-1,3,4-oxadiazole]
17 | 5.2 µM | 16.7 µM | 0.804 µM | 3.51 µM | – | – | – | – | – | COCCNc1nnc(Sc2ncnc3cc(-c4ccc(OC)cc4)sc23)s1 [Compound 9f]
18 | 7.66 µM | – | 3.85 µM | 5.59 µM | – | – | – | – | – | Fc1ccc(-c2cc3ncnc(Sc4nnc(CN5CCOCC5)o4)c3s2)cc1 [Compound 8d, 4-{[5-({6-[4-Fluorophenyl]thieno[3,2-d]pyrimidin-4-yl}thio)-1,3,4-oxadiazol-2-yl]methyl}morpholine]
19 | 5.8 µM | 5.99 µM | 1.02 µM | 2.37 µM | – | – | – | – | – | COc1ccc(-c2cc3ncnc(Sc4nnnn4C)c3s2)cc1 [Compound 9g]
20 | 3.16 µM | – | 1.04 µM | 0.987 µM | – | 223 °C | – | – | – | Fc1ccc(-c2cc3ncnc(Sc4nnc(-c5ccccc5)o4)c3s2)cc1 [Compound 8a, 2-{[6-(4-Fluorophenyl)thieno[3,2-d]pyrimidin-4-yl]thio}-5-phenyl-1,3,4-oxadiazole]
21 | 6.09 µM | 15 µM | 6.48 µM | 3.03 µM | – | – | – | – | – | Fc1ccc(-c2cc3ncnc(Sc4nnc(CN5CCCC5)o4)c3s2)cc1 [Compound 9b]
22 | 6.56 µM | 3.52 µM | 4.92 µM | 0.935 µM | – | – | – | – | – | Fc1ccc(-c2cc3ncnc(Sc4nnc(-c5ccc6c(c5)OCO6)o4)c3s2)cc1 [Compound 9c]
23 | 1.2 µM | 0.9 µM | – | 0.73 µM | – | 206 to 208 °C | – | – | 0.65 µM | COc1ccc(-c2cc3nc(N)nc(Sc4nnc(-c5ccc(Cl)cc5)o4)c3s2)cc1 [Compound 8r, 4-{[5-(4-Chlorophenyl)-1,3,4-oxadiazol-2-yl]thio}-6-(4-methoxyphenyl)thieno[3,2-d]pyrimidin-2-amine]
24 | 28.9 µM | 13.6 µM | 2.41 µM | 13.6 µM | – | – | – | – | – | Cn1nnnc1Sc1ncnc2cc(-c3ccc(F)cc3)sc12 [Compound 9d]
